Drawing on the kinase profiling compilation of Christmann-Franck et al. (2016), this text covers residual activity for five compounds.

Holding throughout (test): Free Choice Kinase Assay Projects, Flashplate
One experiment addresses TEK (human) (UniProt Q02763). The following applies: compound 10.0 µM; ATP 1 µM.
The next experiment has as its target PLK1 (human) (UniProt P53350). The following applies: compound 10.0 µM; ATP 1 µM.
A further experiment has as its target MET (human) (UniProt P08581). The following applies: compound 10.0 µM; ATP 0.3 µM.
For another experiment, the target named is ERBB2 (human) (UniProt P04626). The settings on record: compound 10.0 µM; ATP 1 µM.
A further experiment deals with AURKA (human) (UniProt O14965). The settings on record: compound 10.0 µM; ATP 10 µM.
The next experiment deals with PDGFRB (human) (UniProt P09619). The following applies: compound 10.0 µM; ATP 0.3 µM.
Another experiment has as its target CDK4 CCND1 (human) (UniProt P11802+P24385). The following applies: compound 10.0 µM; ATP 3 µM.
The target of a further experiment is MAP3K8 (human) (UniProt P41279). The following applies: compound 10.0 µM; ATP 3 µM.
The target of the next experiment is SRC (human) (UniProt P12931). The settings on record: compound 10.0 µM; ATP 0.3 µM.
The target of the next experiment is AURKB (human) (UniProt Q96GD4). The following applies: compound 10.0 µM; ATP 10 µM.
The next experiment addresses CSNK2A1 (human) (UniProt P68400). The settings on record: compound 10.0 µM; ATP 0.1 µM.
Another experiment has as its target AKT1 (human) (UniProt P31749). The settings on record: compound 10.0 µM; ATP 3 µM.
The next experiment addresses MAPK14 (human) (UniProt Q16539). The settings on record: compound 10.0 µM; ATP 1 µM.
A further experiment concerns the target PTK2 (human) (UniProt Q05397). The settings on record: compound 10.0 µM; ATP 1 µM.
For another experiment, the target named is CDK2 CCNA2 (human) (UniProt P24941+P20248). The settings on record: compound 10.0 µM; ATP 0.3 µM.
In another experiment the target is NUAK1 (human) (UniProt O60285). The settings on record: compound 10.0 µM; ATP 1 µM.
A further experiment concerns the target MAPK10 (human) (UniProt P53779). The settings on record: compound 10.0 µM; ATP 0.3 µM.
A further experiment deals with PLK4 (human) (UniProt O00444). The following applies: compound 10.0 µM; ATP 0.3 µM.
For the next experiment, the target named is KDR (human) (UniProt P35968). The following applies: compound 10.0 µM; ATP 1 µM.
The target of another experiment is AXL (human) (UniProt P30530). The settings on record: compound 10.0 µM; ATP 0.3 µM.
Another experiment concerns the target IGF1R (human) (UniProt P08069). The following applies: compound 10.0 µM; ATP 1 µM.
For experiment [1], the system named is BRAF (human), P15056 [V600E]. The following applies: compound 10.0 µM; ATP 3 µM.
The target of another experiment is EGFR (human) (UniProt P00533). The following applies: compound 10.0 µM; ATP 0.3 µM.
For a further experiment, the target named is EPHB4 (human) (UniProt P54760). The settings on record: compound 10.0 µM; ATP 1 µM.

Structures are written as SMILES.

CDK2 CCNA2 (human), sequence (P20248 whole entry, looked up, other chains not shown): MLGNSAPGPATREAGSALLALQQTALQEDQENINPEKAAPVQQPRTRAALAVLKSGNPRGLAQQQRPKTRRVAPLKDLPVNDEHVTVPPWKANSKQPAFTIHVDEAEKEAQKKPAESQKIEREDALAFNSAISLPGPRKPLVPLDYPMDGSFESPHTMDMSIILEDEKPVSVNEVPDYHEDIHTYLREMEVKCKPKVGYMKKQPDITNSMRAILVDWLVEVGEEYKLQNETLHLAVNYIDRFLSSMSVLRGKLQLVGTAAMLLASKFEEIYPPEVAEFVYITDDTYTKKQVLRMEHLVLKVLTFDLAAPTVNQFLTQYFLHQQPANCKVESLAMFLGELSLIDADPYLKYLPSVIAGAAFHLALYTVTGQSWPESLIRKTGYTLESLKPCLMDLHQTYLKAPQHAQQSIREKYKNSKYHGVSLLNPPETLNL
ERBB2 (human), sequence (P04626 whole entry, looked up): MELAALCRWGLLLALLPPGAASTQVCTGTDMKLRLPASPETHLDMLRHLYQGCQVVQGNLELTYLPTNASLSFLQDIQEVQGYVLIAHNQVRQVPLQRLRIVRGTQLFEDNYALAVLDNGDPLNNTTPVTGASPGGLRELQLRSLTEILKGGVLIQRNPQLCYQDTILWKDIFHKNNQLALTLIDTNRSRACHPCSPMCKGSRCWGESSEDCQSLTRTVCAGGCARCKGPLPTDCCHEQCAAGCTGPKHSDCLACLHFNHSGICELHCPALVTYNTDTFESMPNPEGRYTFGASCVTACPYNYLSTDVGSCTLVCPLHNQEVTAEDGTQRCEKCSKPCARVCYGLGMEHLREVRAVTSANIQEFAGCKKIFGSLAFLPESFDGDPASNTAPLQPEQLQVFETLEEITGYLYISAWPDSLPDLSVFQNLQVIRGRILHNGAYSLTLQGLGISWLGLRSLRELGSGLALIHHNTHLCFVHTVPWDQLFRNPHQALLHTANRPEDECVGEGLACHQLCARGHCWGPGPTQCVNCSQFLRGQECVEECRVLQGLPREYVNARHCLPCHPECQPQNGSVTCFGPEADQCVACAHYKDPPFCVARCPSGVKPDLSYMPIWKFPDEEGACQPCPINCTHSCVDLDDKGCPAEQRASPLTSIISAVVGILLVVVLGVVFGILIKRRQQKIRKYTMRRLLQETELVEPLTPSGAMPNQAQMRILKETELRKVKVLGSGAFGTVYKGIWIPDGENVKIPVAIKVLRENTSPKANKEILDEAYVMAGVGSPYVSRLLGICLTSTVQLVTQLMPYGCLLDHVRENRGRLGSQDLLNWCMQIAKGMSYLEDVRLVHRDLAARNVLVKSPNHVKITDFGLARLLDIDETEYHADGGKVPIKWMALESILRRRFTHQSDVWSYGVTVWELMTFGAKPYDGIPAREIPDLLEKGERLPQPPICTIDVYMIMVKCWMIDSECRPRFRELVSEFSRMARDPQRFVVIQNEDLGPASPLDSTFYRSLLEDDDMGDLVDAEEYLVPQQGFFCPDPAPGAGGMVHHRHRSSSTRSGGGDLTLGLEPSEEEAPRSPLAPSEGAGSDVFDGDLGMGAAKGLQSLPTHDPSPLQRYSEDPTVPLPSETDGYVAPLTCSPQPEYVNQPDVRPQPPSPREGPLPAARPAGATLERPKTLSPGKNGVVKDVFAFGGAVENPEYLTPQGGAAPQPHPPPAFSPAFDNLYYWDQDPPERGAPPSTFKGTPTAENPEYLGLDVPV
AKT1 (human), sequence (P31749 whole entry, looked up): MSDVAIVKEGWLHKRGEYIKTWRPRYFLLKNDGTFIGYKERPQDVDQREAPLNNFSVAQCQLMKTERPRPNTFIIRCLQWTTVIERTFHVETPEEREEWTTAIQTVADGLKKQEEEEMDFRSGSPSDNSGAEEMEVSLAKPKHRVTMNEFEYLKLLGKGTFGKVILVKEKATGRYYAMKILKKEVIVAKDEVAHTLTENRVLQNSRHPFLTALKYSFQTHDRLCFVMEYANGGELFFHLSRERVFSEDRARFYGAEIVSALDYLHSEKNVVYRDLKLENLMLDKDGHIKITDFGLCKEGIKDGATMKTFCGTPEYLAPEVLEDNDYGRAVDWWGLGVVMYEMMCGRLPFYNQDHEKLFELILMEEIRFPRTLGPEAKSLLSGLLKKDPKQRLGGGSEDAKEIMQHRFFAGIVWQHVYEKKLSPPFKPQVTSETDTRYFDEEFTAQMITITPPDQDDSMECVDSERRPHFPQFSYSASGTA
CDK4 CCND1 (human), sequence (P11802 whole entry, looked up): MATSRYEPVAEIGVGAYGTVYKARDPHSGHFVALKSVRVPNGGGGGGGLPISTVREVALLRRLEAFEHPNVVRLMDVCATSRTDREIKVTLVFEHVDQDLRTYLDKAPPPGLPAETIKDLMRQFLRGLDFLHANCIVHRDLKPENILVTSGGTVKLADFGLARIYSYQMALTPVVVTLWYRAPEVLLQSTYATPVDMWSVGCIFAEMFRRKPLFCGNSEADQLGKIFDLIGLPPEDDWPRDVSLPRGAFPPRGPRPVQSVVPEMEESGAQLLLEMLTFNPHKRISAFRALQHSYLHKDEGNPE
CDK4 CCND1 (human), sequence (P24385 whole entry, looked up): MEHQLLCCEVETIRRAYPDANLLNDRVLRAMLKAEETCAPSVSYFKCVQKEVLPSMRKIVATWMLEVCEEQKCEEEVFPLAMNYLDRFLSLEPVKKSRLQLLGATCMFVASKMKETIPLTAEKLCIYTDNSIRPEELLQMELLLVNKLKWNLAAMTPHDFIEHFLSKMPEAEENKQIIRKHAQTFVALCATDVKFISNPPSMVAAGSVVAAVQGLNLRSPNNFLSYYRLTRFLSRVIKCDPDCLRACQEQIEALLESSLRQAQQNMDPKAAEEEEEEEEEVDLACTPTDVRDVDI
EGFR (human), sequence (P00533 whole entry, looked up): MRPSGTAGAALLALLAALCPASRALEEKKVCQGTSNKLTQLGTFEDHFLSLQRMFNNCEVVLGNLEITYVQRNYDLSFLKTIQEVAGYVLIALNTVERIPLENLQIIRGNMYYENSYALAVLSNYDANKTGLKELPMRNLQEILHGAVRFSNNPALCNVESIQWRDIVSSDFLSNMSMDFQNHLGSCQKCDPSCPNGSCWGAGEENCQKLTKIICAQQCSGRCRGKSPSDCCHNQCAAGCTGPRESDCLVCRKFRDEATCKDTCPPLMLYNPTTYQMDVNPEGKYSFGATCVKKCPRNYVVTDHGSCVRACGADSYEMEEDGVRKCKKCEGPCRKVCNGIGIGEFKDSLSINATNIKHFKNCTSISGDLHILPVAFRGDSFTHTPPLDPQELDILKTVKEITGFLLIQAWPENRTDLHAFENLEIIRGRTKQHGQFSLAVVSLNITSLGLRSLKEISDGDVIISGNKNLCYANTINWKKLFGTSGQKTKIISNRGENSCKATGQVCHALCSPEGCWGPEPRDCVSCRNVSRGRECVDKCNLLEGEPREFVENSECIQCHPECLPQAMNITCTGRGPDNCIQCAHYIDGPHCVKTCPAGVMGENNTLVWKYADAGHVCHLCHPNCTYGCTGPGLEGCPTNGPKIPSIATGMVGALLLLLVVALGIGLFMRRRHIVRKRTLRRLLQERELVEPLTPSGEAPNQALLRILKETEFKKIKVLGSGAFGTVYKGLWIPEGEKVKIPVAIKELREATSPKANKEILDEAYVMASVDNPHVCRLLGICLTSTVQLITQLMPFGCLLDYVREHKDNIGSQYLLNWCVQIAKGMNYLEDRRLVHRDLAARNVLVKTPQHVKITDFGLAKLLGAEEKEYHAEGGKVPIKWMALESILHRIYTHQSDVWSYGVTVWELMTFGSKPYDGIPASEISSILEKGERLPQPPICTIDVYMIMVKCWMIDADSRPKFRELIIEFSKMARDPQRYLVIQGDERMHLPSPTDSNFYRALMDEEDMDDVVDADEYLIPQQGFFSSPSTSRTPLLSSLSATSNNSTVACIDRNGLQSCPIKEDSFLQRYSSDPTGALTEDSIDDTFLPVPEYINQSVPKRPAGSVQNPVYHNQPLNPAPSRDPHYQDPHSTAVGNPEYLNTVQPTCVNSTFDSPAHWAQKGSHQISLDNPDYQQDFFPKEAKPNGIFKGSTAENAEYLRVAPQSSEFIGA
AURKA (human), sequence (O14965 whole entry, looked up): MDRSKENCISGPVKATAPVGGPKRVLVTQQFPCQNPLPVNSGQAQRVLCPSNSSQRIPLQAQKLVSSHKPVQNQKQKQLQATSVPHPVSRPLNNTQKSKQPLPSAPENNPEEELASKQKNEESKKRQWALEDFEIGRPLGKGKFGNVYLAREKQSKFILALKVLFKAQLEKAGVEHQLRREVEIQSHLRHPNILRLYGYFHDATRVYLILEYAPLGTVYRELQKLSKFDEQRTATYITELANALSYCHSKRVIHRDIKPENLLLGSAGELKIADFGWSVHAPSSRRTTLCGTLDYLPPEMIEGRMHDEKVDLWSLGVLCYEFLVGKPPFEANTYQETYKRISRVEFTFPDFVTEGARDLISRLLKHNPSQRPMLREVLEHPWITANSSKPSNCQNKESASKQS
CSNK2A1 (human), sequence (P68400 whole entry, looked up): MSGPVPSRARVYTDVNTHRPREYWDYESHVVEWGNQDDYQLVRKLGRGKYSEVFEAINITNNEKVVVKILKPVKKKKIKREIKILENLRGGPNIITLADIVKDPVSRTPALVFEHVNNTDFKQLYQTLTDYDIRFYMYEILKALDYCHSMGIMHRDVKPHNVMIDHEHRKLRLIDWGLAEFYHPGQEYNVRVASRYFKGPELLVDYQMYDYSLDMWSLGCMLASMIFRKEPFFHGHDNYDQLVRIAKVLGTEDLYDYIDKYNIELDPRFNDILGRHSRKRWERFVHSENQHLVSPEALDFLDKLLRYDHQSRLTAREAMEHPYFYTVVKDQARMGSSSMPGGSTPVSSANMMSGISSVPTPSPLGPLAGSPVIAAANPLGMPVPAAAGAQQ

Usually residual activity stands for the signal under treatment as a percentage of the control signal. `Oc1ccc(CSc2nc(-c3ccncc3)c(-c3ccc(F)cc3)[nH]2)cc1`: the residual activity at TEK (human) was 33%; on PLK1 (human), 120%; at MET (human) it was 78%; at ERBB2 (human) it was 22%; on AURKA (human), 64%; at PDGFRB (human), 65%. The residual activity at CDK4 CCND1 (human) came to 103%; on MAP3K8 (human), 96%; on SRC (human), 34%; at AURKB (human), 78%; on CSNK2A1 (human) it was 107%; at AKT1 (human), 130%. Besides, the residual activity worked out at 4% at MAPK14 (human); 99% on PTK2 (human); 117% at CDK2 CCNA2 (human); 126% on NUAK1 (human); 48% at MAPK10 (human); 51% at PLK4 (human). In addition, the residual activity on KDR (human) was 26%; on AXL (human), 91%; on IGF1R (human), 104%; in [1], 5%; at EGFR (human), 20%; at EPHB4 (human), 42%.
Consider `Fc1ccc(-c2[nH]c(SCC3CCCCC3)nc2-c2ccncc2)cc1`, for which the residual activity on TEK (human) was found to be 36%; at PLK1 (human) it was 83%; at MET (human) it was 73%; on ERBB2 (human), 46%; at AURKA (human), 46%; on PDGFRB (human) it was 81%. The residual activity at CDK4 CCND1 (human) is 44%; at MAP3K8 (human), 73%; on SRC (human) it was 38%; on AURKB (human), 80%; at CSNK2A1 (human), 86%; at AKT1 (human) it was 56%. The residual activity on MAPK14 (human) came out at 23%; at PTK2 (human), 106%; on CDK2 CCNA2 (human), 74%; on NUAK1 (human), 91%; at MAPK10 (human), 63%; on PLK4 (human), 34%. In addition, the residual activity worked out at 48% at KDR (human); 63% at AXL (human); 22% at IGF1R (human); 24% at EGFR (human); 38% at EPHB4 (human).
`COc1ccc(C(=O)Nc2cc(-c3nc(SC)n(C)c3-c3ccc(F)cc3)ccn2)cc1`: the residual activity at TEK (human) was determined as 21%; on PLK1 (human) it was 81%; at MET (human), 52%; at ERBB2 (human), 17%; at AURKA (human) it was 97%; on PDGFRB (human), 48%. Also, the residual activity on CDK4 CCND1 (human) worked out at 76%; at MAP3K8 (human), 87%; on SRC (human) it was 9%; on AURKB (human), 87%; at CSNK2A1 (human) it was 72%; on AKT1 (human), 113%. Besides, the residual activity worked out at 3% on MAPK14 (human); 131% on PTK2 (human); 37% on CDK2 CCNA2 (human); 95% on NUAK1 (human); 18% on MAPK10 (human); 20% on PLK4 (human). Besides, the residual activity on KDR (human) was determined as 8%; at AXL (human), 54%; at IGF1R (human) it was 23%; on EGFR (human) it was 7%; at EPHB4 (human), 33%.
`Fc1ccc(-c2[nH]c(SCc3ccccc3)nc2-c2ccnc(Cl)c2)cc1`: the residual activity stood at 16% at TEK (human); 60% at PLK1 (human); 53% at MET (human); 9% at ERBB2 (human); 62% on AURKA (human); 44% on PDGFRB (human). Moreover, the residual activity was 48% on CDK4 CCND1 (human); 58% at MAP3K8 (human); 17% on SRC (human); 47% at AURKB (human); 95% at CSNK2A1 (human); 75% at AKT1 (human). Besides, the residual activity amounted to 9% at MAPK14 (human); 120% at PTK2 (human); 43% on CDK2 CCNA2 (human); 71% at NUAK1 (human); 57% on MAPK10 (human); 24% at PLK4 (human). For the same compound, the residual activity at KDR (human) came to 38%; at AXL (human) it was 62%; at IGF1R (human), 42%; on EGFR (human), 7%; at EPHB4 (human), 42%.
Regarding `CSc1ccccc1CSc1nc(-c2ccncc2)c(-c2ccc(F)cc2)[nH]1`, the residual activity on TEK (human) was 48%; at PLK1 (human), 82%; on MET (human), 76%; at ERBB2 (human), 29%; on AURKA (human), 80%; on PDGFRB (human) it was 85%. Besides, the residual activity was determined as 89% on CDK4 CCND1 (human); 85% at MAP3K8 (human); 29% on SRC (human); 79% on AURKB (human); 83% on CSNK2A1 (human); 137% on AKT1 (human). Moreover, the residual activity at MAPK14 (human) came to 10%; on PTK2 (human), 98%; on CDK2 CCNA2 (human) it was 66%; at NUAK1 (human), 95%; at MAPK10 (human) it was 58%; at PLK4 (human), 59%. In addition, the residual activity at KDR (human) amounted to 51%; at AXL (human) it was 85%; at IGF1R (human), 60%; at EGFR (human) it was 30%; on EPHB4 (human) it was 52%.
